Data: paper PMC8131206 (Nature biomedical engineering, 2021)
Where no end group is shown, it is not given here.

How the values were obtained:
E. faecalis ATCC 29212 = settings: ATCC 29212, 24 h
S. aureus (MS) NRS72 = settings: MS) NRS72, 24 h
A. baumannii 2208 = settings: 2208, 24 h
E. coli DH5α = settings: 24 h
[1] = tested on: M. tuberculosis H37Ra (attenuated); settings: 96 h
P. aeruginosa PAO1 = settings: PAO1, 24 h
H. influenzae TD-4 = settings: TD-4, 24 h
S. aureus (MS) Newman = settings: 24 h
S. mitis NCTC 12261 = settings: NCTC 12261, 24 h
M. smegmatis Mc^2 155 = settings: Mc^2 155, 48 h
K. pneumoniae NCTC 9633 = settings: NCTC 9633, 24 h
S. enterica CDC 6516–60 = settings: CDC 6516–60, 24 h
S. aureus (MR) USA300 = settings: USA300, 24 h

KRWWKWWRR-NH2 [AMP2]
MIC (E. faecalis ATCC 29212): >80 µM
MIC (S. aureus (MS) NRS72): 80 µM
MIC (A. baumannii 2208): 80 µM
MIC (E. coli DH5α): 80 µM
MIC [1]: 10 µM
MIC (P. aeruginosa PAO1): 20 µM
MIC (H. influenzae TD-4): 80 µM
MIC (S. aureus (MS) Newman): 40 µM
MIC (S. mitis NCTC 12261): >80 µM
MIC (M. smegmatis Mc^2 155): 20 µM
MIC (K. pneumoniae NCTC 9633): 20 µM
MIC (S. enterica CDC 6516–60): 80 µM
MIC (S. aureus (MR) USA300): 80 µM

RRWWRWVVW-NH2 [AMP3]
MIC (E. faecalis ATCC 29212): 80 µM
MIC (S. aureus (MS) NRS72): 20 µM
MIC (A. baumannii 2208): 10 µM
MIC (E. coli DH5α): >80 µM
MIC [1]: 20 µM
MIC (P. aeruginosa PAO1): 80 µM
MIC (S. aureus (MS) Newman): 20 µM
MIC (M. smegmatis Mc^2 155): 20 µM
MIC (K. pneumoniae NCTC 9633): 2.5 µM
MIC (S. enterica CDC 6516–60): 80 µM
MIC (S. aureus (MR) USA300): 20 µM

WKWLKKWIK-NH2 [AMP1]
MIC (E. faecalis ATCC 29212): 80 µM
MIC (S. aureus (MS) NRS72): >80 µM
MIC (A. baumannii 2208): 25 µM
MIC (E. coli DH5α): >80 µM
MIC [1]: 20 µM
MIC (P. aeruginosa PAO1): 10 µM
MIC (H. influenzae TD-4): 80 µM
MIC (S. aureus (MS) Newman): 80 µM
MIC (S. mitis NCTC 12261): 20 µM
MIC (M. smegmatis Mc^2 155): 20 µM
MIC (K. pneumoniae NCTC 9633): 20 µM
MIC (S. enterica CDC 6516–60): 40 µM
MIC (S. aureus (MR) USA300): >80 µM
